Test results: patent publication US8771665B2 (Cocrystal Discovery, Inc., priority 2010, dated 2014)

molecular target: T1, HCV1b NS5B polymerase delta 21 (Hepatitis C virus genotype 1b, UniProt P26663); test: RNA-Dependent RNA HCV NS5B (Polymerase) Assay and IC50 Determination; format: biochemical
T1 construct: purified HCV1b NS5B polymerase delta 21
Procedure: RNA-Dependent RNA HCV NS5B (Polymerase) Assay and IC50 Determination
In vitro RNA-dependent RNA polymerase activity was determined in a reaction mixture (50 μL) containing 50 mM Tris-HCl, pH 7.5, 5 mM MgCl2, 1 mM dithiothreitol, 0.5% Triton® X-100, 10 μM of UTP, 0.1-0.5 μCi of α-^32P UTP (Perkin Elmer Life Sciences), 1 μg of polyA:U16 (Midland Oligo), and 0.6 μg of purified HCV1b NS5B polymerase delta 21. Different concentrations of compounds were added to the reaction mixtures. The reaction was carried out at RT (23° C.) for 60 min and then stopped by the addition of 100 μL of 50 mM EDTA. The reaction mixtures were filtered through either a DE81 membrane or a positively charged nylon membrane, and the membranes were then extensively washed with 30 mM sodium citrate, pH 7.0 and 300 mM NaCl. The radiolabeled RNA products were quantitated using a Storm™ Phosphorlmager™ (GE Life Sciences). IC50 values were calculated using GraFit 6 and GraphPad Prism 5 from triplicate assays.

T1 sequence (P26663 2420-2989): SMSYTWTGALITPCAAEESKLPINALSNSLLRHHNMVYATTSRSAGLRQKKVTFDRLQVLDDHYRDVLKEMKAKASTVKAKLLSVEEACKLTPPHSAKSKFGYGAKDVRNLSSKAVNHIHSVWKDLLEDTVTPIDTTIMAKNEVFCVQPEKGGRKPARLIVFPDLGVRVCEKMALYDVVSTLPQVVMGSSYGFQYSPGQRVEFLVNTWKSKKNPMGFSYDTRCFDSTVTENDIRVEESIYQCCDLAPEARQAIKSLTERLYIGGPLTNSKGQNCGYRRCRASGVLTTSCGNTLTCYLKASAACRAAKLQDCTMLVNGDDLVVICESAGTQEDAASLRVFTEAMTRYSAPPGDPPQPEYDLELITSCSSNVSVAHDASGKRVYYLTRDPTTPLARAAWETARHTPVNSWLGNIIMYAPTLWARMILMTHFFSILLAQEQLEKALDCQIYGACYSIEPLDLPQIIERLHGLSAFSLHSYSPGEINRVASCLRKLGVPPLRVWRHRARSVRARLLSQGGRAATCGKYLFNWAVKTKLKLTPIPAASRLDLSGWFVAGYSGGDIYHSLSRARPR

Compound | IC50 [µM]
CC1CCC(C2=C(c3cc(-c4cc(F)c(NC(=O)c5cscn5)cc4F)sc3C(=O)O)CCN(C)C2)CC1 (stereo not drawn) [Example 160, 5-{2,5-Difluoro-4-[(thiazole-4-carbonyl)-amino]-phenyl}-3-[1-methyl-5-(4-methyl-cyclohexyl)-1,2,3,6-tetrahydro-pyridin-4-yl]-thiophene-2-carboxylic acid] | < 3
CC1CCC(C2=C(c3cc(C#CC(C)(C)C)sc3C(=O)O)CCN(Cc3c(C(F)(F)F)nn(C)c3Cl)C2)CC1 (stereo not drawn) [Example 136, 3-[1-(5-Chloro-1-methyl-3-trifluoromethyl-1H-pyrazol-4-ylmethyl)-5-(4-methyl-cyclohexyl)-1,2,3,6-tetrahydro-pyridin-4-yl]-5-(3,3-dimethyl-but-1-ynyl)-thiophene-2-carboxylic acid] | > 10
CCCC(=O)N1CCC(c2cc(-c3ccccc3)sc2C(=O)O)=C(C2CCC(C)CC2)C1 (stereo not drawn) [Example 077, 3-[1-Butyryl-5-(4-methyl-cyclohexyl)-1,2,3,6-tetrahydro-pyridin-4-yl]-5-phenyl-thiophene-2-carboxylic acid] | 3 to 10
Cc1nn(C)cc1CN1CCC(c2cc(C#CC(C)(C)C)sc2C(=O)O)=C(C2CCC(C)CC2)C1 (stereo not drawn) [Example 142, 5-(3,3-Dimethyl-but-1-ynyl)-3-[1-(1,3-dimethyl-1H-pyrazol-4-ylmethyl)-5-(4-methyl-cyclohexyl)-1,2,3,6-tetrahydro-pyridin-4-yl]-thiophene-2-carboxylic acid] | < 3
CC1CCC(C2=C(c3cc(-c4ccccc4)sc3C(=O)O)CCN(Cc3nc4nc(C(C)C)cc(C(C)C)n4n3)C2)CC1 (stereo not drawn) [Example 151, 3-[1-(5,7-Diisopropyl-[1,2,4]triazolo[1,5-a]pyrimidin-2-ylmethyl)-5-(4-methyl-cyclohexyl)-1,2,3,6-tetrahydro-pyridin-4-yl]-5-phenyl-thiophene-2-carboxylic acid] | 3 to 10
CCN1CCC(c2cc(-c3ccc(NC(=O)c4ccccc4)cc3)sc2C(=O)O)=C(C2CCC(C)CC2)C1 (stereo not drawn) [Example 020, 5-(4-Benzoylamino-phenyl)-3-[1-ethyl-5-(4-methyl-cyclohexyl)-1,2,3,6-tetrahydro-pyridin-4-yl]-thiophene-2-carboxylic acid] | 3 to 10
CC1CCC(C2=C(c3cc(-c4ccccc4)sc3C(=O)O)CCN(C(=O)Cc3ccncc3)C2)CC1 (stereo not drawn) [Example 093, 3-[5-(4-Methyl-cyclohexyl)-1-(2-pyridin-4-yl-acetyl)-1,2,3,6-tetrahydro-pyridin-4-yl]-5-phenyl-thiophene-2-carboxylic acid] | > 10
CCN1CCC(c2cc(-c3ccc(NC(=O)c4nccs4)cc3)sc2C(=O)O)=C(C2CCC(C)CC2)C1 (stereo not drawn) [Example 066, 3-[1-Ethyl-5-(4-methyl-cyclohexyl)-1,2,3,6-tetrahydro-pyridin-4-yl]-5-{4-[(thiazole-2-carbonyl)-amino]-phenyl}-thiophene-2-carboxylic acid] | < 3
CCc1cc(CC)n2nc(CN3CCC(c4cc(-c5ccccc5)sc4C(=O)O)=C(C4CCC(C)CC4)C3)nc2n1 (stereo not drawn) [Example 150, 3-[1-(5,7-Diethyl-[1,2,4]triazolo[1,5-a]pyrimidin-2-ylmethyl)-5-(4-methyl-cyclohexyl)-1,2,3,6-tetrahydro-pyridin-4-yl]-5-phenyl-thiophene-2-carboxylic acid] | < 3
CCN1CCC(c2cc(-c3ccc(NC(=O)c4ccsc4)cc3)sc2C(=O)O)=C(C2CCC(C)CC2)C1 (stereo not drawn) [Example 049, 3-[1-Ethyl-5-(4-methyl-cyclohexyl)-1,2,3,6-tetrahydro-pyridin-4-yl]-5-{4-[(thiophene-3-carbonyl)-amino]-phenyl}-thiophene-2-carboxylic acid] | < 3
CC1CCC(C2=C(c3cc(-c4ccccc4)sc3C(=O)O)CCN(CCC(=O)O)C2)CC1 (stereo not drawn) [Example 083, 3-[1-(2-Carboxy-ethyl)-5-(4-methyl-cyclohexyl)-1,2,3,6-tetrahydro-pyridin-4-yl]-5-phenyl-thiophene-2-carboxylic acid] | 3 to 10
CCOC(C#Cc1cc(C2=C(C3CCC(C)CC3)CN(CC)CC2)c(C(=O)O)s1)OCC (stereo not drawn) [Example 033, 5-(3,3-Diethoxy-prop-1-ynyl)-3-[1-ethyl-5-(4-methyl-cyclohexyl)-1,2,3,6-tetrahydro-pyridin-4-yl]-thiophene-2-carboxylic acid] | 3 to 10
CC1CCC(C2=C(c3cc(C#CC(C)(C)C)sc3C(=O)O)CN(CCF)CC2)CC1 (stereo not drawn) [Example 124, 5-(3,3-Dimethyl-but-1-ynyl)-3-[1-(2-fluoro-ethyl)-4-(4-methyl-cyclohexyl)-1,2,5,6-tetrahydro-pyridin-3-yl]-thiophene-2-carboxylic acid] | < 3
CC1CCC(C2=C(c3cc(-c4ccc(-c5nc6cccnc6[nH]5)cc4)sc3C(=O)O)CCN(C)C2)CC1 (stereo not drawn) [Example 140, 5-[4-(3H-Imidazol-[4,5-b]pyridin-2-yl)-phenyl]-3-[1-methyl-5-(4-methyl-cyclohexyl)-1,2,3,6-tetrahydro-pyridin-4-yl]-thiophene-2-carboxylic acid] | 3 to 10
CCOC(=O)N1CCC(c2cc(-c3ccccc3)sc2C(=O)O)=C(C2CCC(C)CC2)C1 (stereo not drawn) [Example 038, 4-(2-Carboxy-5-phenyl-thiophen-3-yl)-5-(4-methyl-cyclohexyl)-3,6-dihydro-2H-pyridine-1-carboxylic acid ethyl ester] | > 10
CC1CCC(C2=C(c3cc(-c4ccccc4)sc3C(=O)O)CCN(Cc3ccc(Br)cn3)C2)CC1 (stereo not drawn) [Example 149, 3-[1-(5-Bromo-pyridin-2-ylmethyl)-5-(4-methyl-cyclohexyl)-1,2,3,6-tetrahydro-pyridin-4-yl]-5-phenyl-thiophene-2-carboxylic acid] | 3 to 10
CCOC(=O)c1sc(-c2ccc(NC(=O)c3cscn3)cc2)cc1C1=C(C2CCC(C)CC2)CN(C)CC1 (stereo not drawn) [Example 100, 3-[1-Methyl-5-(4-methyl-cyclohexyl)-1,2,3,6-tetrahydro-pyridin-4-yl]-5-{4-[(thiazole-4-carbonyl)-amino]-phenyl}-thiophene-2-carboxylic acid ethyl ester] | > 10
CCN1CCC(c2cc(-c3ccc(NC(=O)c4cn(C)cn4)cc3)sc2C(=O)O)=C(C2CCC(C)CC2)C1 (stereo not drawn) [Example 057, 3-[1-Ethyl-5-(4-methyl-cyclohexyl)-1,2,3,6-tetrahydro-pyridin-4-yl]-5-{4-[(1-methyl-1H-imidazole-4-carbonyl)-amino]-phenyl}-thiophene-2-carboxylic acid] | < 3
CC1CCC(C2=C(c3cc(-c4ccccc4)sc3C(=O)O)CCN(C(=O)Cn3cnc4ccccc43)C2)CC1 (stereo not drawn) [Example 152, 3-[1-(2-Benzoimidazol-1-yl-acetyl)-5-(4-methyl-cyclohexyl)-1,2,3,6-tetrahydro-pyridin-4-yl]-5-phenyl-thiophene-2-carboxylic acid] | < 3
CC1CCC(C2=C(c3cc(-c4ccccc4)sc3C(=O)O)CCN(C(=O)c3nccnc3N)C2)CC1 (stereo not drawn) [Example 155, 3-[1-(3-Amino-pyrazine-2-carbonyl)-5-(4-methyl-cyclohexyl)-1,2,3,6-tetrahydro-pyridin-4-yl]-5-phenyl-thiophene-2-carboxylic acid] | > 10
CCN1CCC(c2cc(C#CC3CC3)sc2C(=O)O)=C(C2CCC(C)CC2)C1 (stereo not drawn) [Example 017, 5-Cyclopropylethynyl-3-[1-ethyl-5-(4-methyl-cyclohexyl)-1,2,3,6-tetrahydro-pyridin-4-yl]-thiophene-2-carboxylic acid] | < 3
CCN1CCC(c2cc(-c3cccc(NC(=O)c4cccs4)c3)sc2C(=O)O)=C(C2CCC(C)CC2)C1 (stereo not drawn) [Example 027, 3-[1-Ethyl-5-(4-methyl-cyclohexyl)-1,2,3,6-tetrahydro-pyridin-4-yl]-5-{3-[(thiophene-2-carbonyl)-amino]-phenyl}-thiophene-2-carboxylic acid] | > 10
CC1CCC(C2=C(c3cc(-c4ccc(NC(=O)c5cscn5)cc4)sc3C(=O)O)CN(C)CC2)CC1 (stereo not drawn) [Example 167, 3-[1-Methyl-4-(4-methyl-cyclohexyl)-1,2,5,6-tetrahydro-pyridin-3-yl]-5-{4-[(thiazole-4-carbonyl)-amino]-phenyl}-thiophene-2-carboxylic acid] | < 3
CC1CCC(C2=C(c3cc(C#CC4CC4)sc3C(=O)O)CCN(CCO)C2)CC1 (stereo not drawn) [Example 138, 5-Cyclopropylethynyl-3-[1-(2-hydroxy-ethyl)-5-(4-methyl-cyclohexyl)-1,2,3,6-tetrahydro-pyridin-4-yl]-thiophene-2-carboxylic acid] | < 3
CC1CCC(C2=C(c3cc(-c4ccccc4)sc3C(=O)O)CCN(Cc3nc4ncccn4n3)C2)CC1 (stereo not drawn) [Example 092, 3-[5-(4-Methyl-cyclohexyl)-1-[1,2,4]triazolo[1,5-a]pyrimidin-2-ylmethyl-1,2,3,6-tetrahydro-pyridin-4-yl]-5-phenyl-thiophene-2-carboxylic acid] | 3 to 10
CC1CCC(C2=C(c3cc(-c4ccc(NC(=O)c5cscn5)cc4)sc3C(=O)O)CCNC2)CC1 (stereo not drawn) [Example 159, 3-[5-(4-Methyl-cyclohexyl)-1,2,3,6-tetrahydro-pyridin-4-yl]-5-{4-[(thiazole-4-carbonyl)-amino]-phenyl}-thiophene-2-carboxylic acid] | < 3
CC1CCC(C2=C(c3cc(-c4ccc(/C=C/c5cscn5)cc4)sc3C(=O)O)CCN(C)C2)CC1 (stereo not drawn) [Example 158, 3-[1-Methyl-5-(4-methyl-cyclohexyl)-1,2,3,6-tetrahydro-pyridin-4-yl]-5-[4-(2-thiazol-4-yl-vinyl)-phenyl]-thiophene-2-carboxylic acid] | > 10
